Assay results from patent US12024531B2, “Immunoproteasome inhibitors” (Principia Biopharma Inc., priority 2017, dated 2024).

What was measured:
[1] = target: immunoproteasome LMP2 subunit (Homo sapiens, UniProt P28065); test: Caliper-based proteasome enzymatic activity assay, LMP2; format: biochemical; conditions: human recombinant immunoproteasome 0.3 nM, FAM peptide substrate 1 μM, rt 2 h
[2] = target: immunoproteasome LMP7/B5i subunit (Homo sapiens, UniProt P28062); test: Caliper-based proteasome enzymatic activity assay, LMP7; format: biochemical; conditions: human recombinant immunoproteasome 0.3 nM, FAM peptide substrate 1 μM, rt 3 h
[3] = target: constitutive proteasome β5c subunit (Homo sapiens, UniProt P28074); test: Caliper-based proteasome enzymatic activity assay, β5c; format: biochemical; conditions: human recombinant constitutive proteasome 0.3 nM, FAM peptide substrate 1 μM, rt 3 h
[4] = target: PBMC LMP7 (Homo sapiens, UniProt P28062); test: Inhibition of proteasome activity in cells (Proteasome-Glo), PBMC/LMP7; format: cell-based; conditions: 2 h incubation at 37° C.
Procedure: The cell-based effects of a compound described herein on the immunoproteasome were determined by measuring inhibition of proteasome activity in cells using the Proteasome-Glo™ Cell-Based Reagent (Promega, Madison WI). The Proteasome-Glo™ assay contains a specific luminogenic proteasome substrate in a buffer optimized for cell permeabilization, proteasome activity, and luciferase activity. For the chymotrypsin-like activity (LMP7 and 05c), the peptide substrate is Suc-LLVY-aminoluciferin (Succinyl-leucine-leucine-valine-tyrosine-aminoluciferin). Cleavage of the substrate by proteasome results in luminescent signal which is proportional to the proteasome activity. The cell line THP-1 (a monocytic leukemia cell line enriched in immunoproteasome), the cell line HT-29 (a colorectal adenocarcinoma cell line enriched in constitutive proteasome), and primary human peripheral blood mononuclear cells (PBMC) were used to assess proteasome activity. Cells were seeded in a 96-well plate at 10,000 cells per well in RPMI 1640 high glucose medium with 10% fetal bovine serum (FBS). Compound dilutions were added to cells starting at a concentration of 5 uM and decreasing in tripling dilutions. The final DMSO concentration was 1%. The concentration range was adjusted as needed for compounds of different potencies. The cells treated with compounds were incubated for 2 h at 37° C. in 5% CO2. At the end of the 2 hour incubation period, cells were transferred to white 384 well assay plates. 20 uL of Proteasome-Glo™ Reagent was added to each well and incubated for 10 minutes at rt. The plate was read in the Analyst HT instrument (Molecular Devices, Sunnyvale, CA) using luminescence mode. The percent inhibition of activity was plotted as a function of log compound concentration. The IC50 was then calculated for each compound using Prism software from GraphPad Software Inc. (San Diego, CA).

Row | IC50 [1] [nM] | IC50 [2] [nM] | IC50 [3] [nM] | IC50 [4] [nM] | Compound
1 | > 5000 | 27 | 260 | 8 | N#CC(=Cc1cccc(OCCC(=O)N[C@@H](CCc2ccccc2)B(O)O)c1)c1ccccn1 [Example 21, (R)-(1-(3-(3-(2-cyano-2-(pyridin-2-yl)vinyl)phenoxy)propanamido)-3-phenylpropyl)boronic Acid]
2 | > 5000 | 2 | 66 | 3 | N#CC(=Cc1cccc(CCOC(=O)N[C@@H](Cc2coc3ccccc23)B(O)O)c1)c1ccccn1 [Example 35, (R)-(2-(benzofuran-3-yl)-1-(((3-(2-cyano-2-(pyridin-2-yl)vinyl)phenethoxy)carbonyl)amino)ethyl)boronic Acid]
3 | > 5000 | 1.5 | 1090 | 4 | Cc1ccc(C[C@H](NC(=O)OCCc2cccc(C=C(C#N)C(=O)N(C)C)c2)B(O)O)cc1 [Example 50, (R)-(1-(((3-(2-cyano-3-(dimethylamino)-3-oxoprop-1-en-1-yl)phenethoxy)carbonyl)amino)-2-(p-tolyl)ethyl)boronic Acid]
4 | > 5000 | 10.3 | > 5000 | 44 | CCN(CC)C(=O)C(C#N)=Cc1cccc(CCOC(=O)N[C@@H](Cc2ccccc2)B(O)O)c1 [Example 52, (R)-(1-(((3-(2-cyano-3-(diethylamino)-3-oxoprop-1-en-1-yl)phenethoxy)carbonyl)amino)-2-phenylethyl)boronic Acid]
5 | > 5000 | 3.3 | 610 | 4 | N#CC(=Cc1cccc(CCOC(=O)N[C@@H](Cc2ccccc2)B(O)O)c1)c1ncccc1F [Example 54, (R)-(1-(((3-(2-cyano-2-(3-fluoropyridin-2-yl)vinyl)phenethoxy)carbonyl)amino)-2-phenylethyl)boronic Acid]
6 | > 5000 | 2 | 1180 | 4 | CCN(CC)C(=O)C(C#N)=Cc1cccc(CCOC(=O)N[C@@H](Cc2ccc(C)cc2)B(O)O)c1 [Example 55, (R)-(1-(((3-(2-cyano-3-(diethylamino)-3-oxoprop-1-en-1-yl)phenethoxy)carbonyl)amino)-2-(p-tolyl)ethyl)boronic Acid]
7 | > 5000 | 43 | 2570 | – | Cc1ccc(C[C@H](NC(=O)NCCc2cccc(C=C(C#N)c3ccc(C(F)(F)F)cn3)c2)B(O)O)cc1 [Example 80, (R)-(1-(3-(3-(2-cyano-2-(5-(trifluoromethyl)pyridin-2-yl)vinyl)phenethyl)ureido)-2-(p-tolyl)ethyl)boronic Acid]
8 | 2830 | 5.2 | 438 | – | Cc1ccc(C[C@H](NC(=O)OCCc2cccc(C=C(C#N)c3ccc(C(F)(F)F)cn3)c2)B(O)O)cc1 [Example 81, (R)-(1-(((3-(2-cyano-2-(5-(trifluoromethyl)pyridin-2-yl)vinyl)phenethoxy)carbonyl)amino)-2-(p-tolyl)ethyl)boronic Acid]
9 | > 5000 | 24 | > 5000 | – | CCN(CC)C(=O)C(C#N)=Cc1cccc(CCNC(=O)N[C@@H](Cc2ccc(C)cc2)B(O)O)c1 [Example 82, (R)-(1-(3-(3-(2-cyano-3-(diethylamino)-3-oxoprop-1-en-1-yl)phenethyl)ureido)-2-(p-tolyl)ethyl)boronic Acid]
10 | > 5000 | 37 | 1970 | – | Cc1ccc(C[C@H](NC(=O)NCCc2cccc(C=C(C#N)c3ncccn3)c2)B(O)O)cc1 [Example 83, (R)-(1-(3-(3-(2-cyano-2-(pyrimidin-2-yl)vinyl)phenethyl)ureido)-2-(p-tolyl)ethyl)boronic Acid]
11 | 2020 | 1.9 | 240 | – | Cn1cnc(C(C#N)=Cc2cccc(CCOC(=O)N[C@@H](Cc3ccccc3)B(O)O)c2)cc1=O [Example 84, (R)-(1-(((3-(2-cyano-2-(1-methyl-6-oxo-1,6-dihydropyrimidin-4-yl)vinyl)phenethoxy)carbonyl)amino)-2-phenylethyl)boronic Acid]
12 | > 5000 | 1.1 | 1170 | – | Cc1ccc(C[C@H](NC(=O)OCCc2cccc(C=C(C#N)C(=O)N3[C@H](C)COC[C@H]3C)c2)B(O)O)cc1 [Example 85, ((R)-1-(((3-(2-cyano-3-((3R,5R)-3,5-dimethylmorpholino)-3-oxoprop-1-en-1-yl)phenethoxy)carbonyl)amino)-2-(p-tolyl)ethyl)boronic Acid]
13 | > 5000 | 0.9 | 779 | – | CCN(CC)C(=O)C(C#N)=Cc1cccc(CCOC(=O)N[C@@H](Cc2ccc(Cl)cc2)B(O)O)c1 [Example 86, (R)-(2-(4-chlorophenyl)-1-(((3-(2-cyano-3-(diethylamino)-3-oxoprop-1-en-1-yl)phenethoxy)carbonyl)amino)ethyl)boronic Acid]
14 | > 5000 | 1.6 | 197 | – | Cc1ccc(C[C@H](NC(=O)OCCc2cccc(C=C(C#N)c3ncccn3)c2)B(O)O)cc1 [Example 87, (R)-(1-(((3-(2-cyano-2-(pyrimidin-2-yl)vinyl)phenethoxy)carbonyl)amino)-2-(p-tolyl)ethyl)boronic Acid]
15 | > 5000 | 1.2 | 802 | – | CCN(C(=O)C(C#N)=Cc1cccc(CCOC(=O)N[C@@H](Cc2ccc(C)cc2)B(O)O)c1)C1CCOCC1 [Example 88, (R)-(1-(((3-(2-cyano-3-(ethyl(tetrahydro-2H-pyran-4-yl)amino)-3-oxoprop-1-en-1-yl)phenethoxy)carbonyl)amino)-2-(p-tolyl)ethyl)boronic Acid]
16 | > 5000 | 0.5 | 869 | – | Cc1ccc(C[C@H](NC(=O)OCCc2cccc(C=C(C#N)C(=O)N3C4CCC3COC4)c2)B(O)O)cc1 [Example 89, ((1R)-1-(((3-(3-(3-oxa-8-azabicyclo[3.2.1]octan-8-yl)-2-cyano-3-oxoprop-1-en-1-yl)phenethoxy)carbonyl)amino)-2-(p-tolyl)ethyl)boronic Acid]
17 | > 5000 | 4.6 | > 5000 | – | CCN(C)C(=O)C(C#N)=Cc1cccc(CCOC(=O)N[C@@H](Cc2ccccc2)B(O)O)c1 [Example 90, (R)-(1-(((3-(2-cyano-3-(ethyl(methyl)amino)-3-oxoprop-1-en-1-yl)phenethoxy)carbonyl)amino)-2-phenylethyl)boronic Acid]
18 | > 5000 | 2.3 | 3840 | – | CN(CC(F)(F)F)C(=O)C(C#N)=Cc1cccc(CCOC(=O)N[C@@H](Cc2ccccc2)B(O)O)c1 [Example 91, (R)-(1-(((3-(2-cyano-3-(methyl(2,2,2-trifluoroethyl)amino)-3-oxoprop-1-en-1-yl)phenethoxy)carbonyl)amino)-2-phenylethyl)boronic Acid]
19 | > 5000 | 0.6 | 532 | – | Cc1ccc(C[C@H](NC(=O)OCCc2cccc(C=C(C#N)C(=O)N3[C@@H](C)COC[C@@H]3C)c2)B(O)O)cc1 [Example 92, ((R)-1-(((3-(2-cyano-3-((3S,5S)-3,5-dimethylmorpholino)-3-oxoprop-1-en-1-yl)phenethoxy)carbonyl)amino)-2-(p-tolyl)ethyl)boronic Acid]
20 | > 5000 | 1.1 | 45 | – | CC1(C)COCCN1C(=O)C(C#N)=Cc1cccc(CCOC(=O)N[C@@H](Cc2coc3ccccc23)B(O)O)c1 [Example 93, (R)-(2-(benzofuran-3-yl)-1-(((3-(2-cyano-3-(3,3-dimethylmorpholino)-3-oxoprop-1-en-1-yl)phenethoxy)carbonyl)amino)ethyl)boronic Acid]
21 | > 5000 | 2.2 | 15 | – | N#CC(=Cc1cccc(CCNC(=O)N[C@@H](Cc2coc3ccccc23)B(O)O)c1)c1ncccn1 [Example 94, (R)-(2-(benzofuran-3-yl)-1-(3-(3-(2-cyano-2-(pyrimidin-2-yl)vinyl)phenethyl)ureido)ethyl)boronic Acid]
22 | > 5000 | 0.6 | 440 | – | CCN(CC)C(=O)C(C#N)=Cc1cc(C#N)cc(CCOC(=O)N[C@@H](Cc2ccc(C)cc2)B(O)O)c1 [Example 101, (R)-(1-(((3-cyano-5-(2-cyano-3-(diethylamino)-3-oxoprop-1-en-1-yl)phenethoxy)carbonyl)amino)-2-(p-tolyl)ethyl)boronic Acid]
